The values below are quoted from earlier work in paper PMC8065136, “Elevated expression of the adhesion GPCR ADGRL4/ELTD1 promotes endothelial sprouting angiogenesis without activating canonical GPCR signalling” (Scientific Reports, 2021).

The subject of this data set is GPR97. The method, then: Another possible explanation for the lack of detectable signalling pathways is that other means of activation need to be employed to activate the receptor. Among them mechanical forces or incubation of the full length receptor with a ligand that has not yet been identified. […] Examples include beclomethasone dipropionate on GPR97[45] or Gedunin- and Khivorin-derivatives on GPR56 and GPR114[46]. It is possible that endogenous small molecules could activate ADGRL4/ELTD1 irrespective of the existence of a functional tethered agoni ...

In the case of `CCC(=O)OCC(=O)[C@@]1(OC(=O)CC)[C@@H](C)C[C@H]2[C@@H]3CCC4=CC(=O)C=C[C@]4(C)[C@@]3(Cl)[C@@H](O)C[C@@]21C` [beclomethasone dipropionate], the “Activation of aGPCR” value is “activate”.
